# Laboratory results from the supplement of paper PMC10307832.
# How the values were obtained:
# Assay in all cases: relative viability (nuclei count vs DMSO), 5 days (fraction); higher = more cells survive
# BX 795 + Crizotinib = compound: O=C(NCCCNc1nc(Nc2cccc(NC(=O)N3CCCC3)c2)ncc1I)c1cccs1 [BX 795] + C[C@@H](Oc1cc(-c2cnn(C3CCNCC3)c2)cnc1N)c1c(Cl)ccc(F)c1Cl [Crizotinib] (partner 1 µM)
# How it was run: (§1)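 Relative viability equals treated-well nuclei counts divided by vehicle-well nuclei counts. Counts came from 4× images of lung cancer cell lines grown in 1536-well plates for 5 days after pin-tool dosing on the day after seeding. Dosing used one drug alone or a fixed anchor-drug dose plus five library-drug doses (not always all listed) in √10 steps, and values are medians of duplicate plates.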
# BX 795 + Palbociclib = compound: O=C(NCCCNc1nc(Nc2cccc(NC(=O)N3CCCC3)c2)ncc1I)c1cccs1 [BX 795] + CC(=O)c1c(C)c2cnc(Nc3ccc(N4CCNCC4)cn3)nc2n(C2CCCC2)c1=O [Palbociclib] (partner 0.5 µM)
# How it was run: as §1
# BX 795 + Trametinib = compound: O=C(NCCCNc1nc(Nc2cccc(NC(=O)N3CCCC3)c2)ncc1I)c1cccs1 [BX 795] + CC(=O)Nc1cccc(-n2c(=O)n(C3CC3)c(=O)c3c(Nc4ccc(I)cc4F)n(C)c(=O)c(C)c32)c1 [Trametinib] (partner 0.02 µM)
# How it was run: as §1
# BX 795 + Foretinib = compound: O=C(NCCCNc1nc(Nc2cccc(NC(=O)N3CCCC3)c2)ncc1I)c1cccs1 [BX 795] + COc1cc2c(Oc3ccc(NC(=O)C4(C(=O)Nc5ccc(F)cc5)CC4)cc3F)ccnc2cc1OCCCN1CCOCC1 [Foretinib] (partner 0.25 µM)
# How it was run: as §1
# BX 795 + Pictilisib = compound: O=C(NCCCNc1nc(Nc2cccc(NC(=O)N3CCCC3)c2)ncc1I)c1cccs1 [BX 795] + CS(=O)(=O)N1CCN(Cc2cc3nc(-c4cccc5[nH]ncc45)nc(N4CCOCC4)c3s2)CC1 [Pictilisib] (partner 1 µM)
# How it was run: as §1
Cell Line,relative viability (BX 795 + Crizotinib; first compound 0.04 µM),relative viability (BX 795 + Crizotinib; first compound 0.1265 µM),relative viability (BX 795 + Crizotinib; first compound 0.4 µM),relative viability (BX 795 + Crizotinib; first compound 1.265 µM),relative viability (BX 795 + Palbociclib; first compound 0.04 µM),relative viability (BX 795 + Palbociclib; first compound 0.1265 µM),relative viability (BX 795 + Palbociclib; first compound 0.4 µM),relative viability (BX 795 + Palbociclib; first compound 1.265 µM),relative viability (BX 795 + Trametinib; first compound 0.04 µM),relative viability (BX 795 + Trametinib; first compound 0.1265 µM),relative viability (BX 795 + Trametinib; first compound 0.4 µM),relative viability (BX 795 + Trametinib; first compound 1.265 µM),relative viability (BX 795 + Foretinib; first compound 0.04 µM),relative viability (BX 795 + Foretinib; first compound 0.1265 µM),relative viability (BX 795 + Foretinib; first compound 0.4 µM),relative viability (BX 795 + Foretinib; first compound 1.265 µM),relative viability (BX 795 + Pictilisib; first compound 0.04 µM),relative viability (BX 795 + Pictilisib; first compound 0.1265 µM),relative viability (BX 795 + Pictilisib; first compound 0.4 µM),relative viability (BX 795 + Pictilisib; first compound 1.265 µM)
NCI-H358,0.652,0.38,0.367,0.17,0.132,0.134,0.131,0.107,0.158,0.124,0.111,0.114,0.656,0.837,0.532,0.393,0.387,0.251,0.327,0.245
EMC-BAC-2,0.724,0.733,0.631,0.525,0.536,0.52,0.512,0.432,0.943,0.921,0.868,0.749,1.01,1.12,0.914,0.322,0.533,0.488,0.479,0.415
CAL-12T,0.562,0.426,0.309,0.333,0.473,0.55,0.298,0.218,0.273,0.298,0.322,0.24,1.16,1.13,0.873,1.07,0.543,0.452,0.368,0.32
LCLC-103H,0.979,1.1,1.01,1.04,0.441,0.511,0.529,0.445,0.578,0.681,0.712,0.651,0.848,0.843,0.847,0.621,0.577,0.674,0.596,0.643
NCI-H520,0.662,0.571,0.443,0.249,0.189,0.263,0.187,0.177,0.568,0.723,0.593,0.362,0.555,0.772,0.832,0.365,0.303,0.321,0.279,0.28
HCC-366,0.541,0.616,0.188,0.313,0.477,0.362,0.289,0.415,0.391,0.338,0.421,0.32,0.973,0.959,0.94,0.235,0.145,0.137,0.104,0.0928
NCI-H1755,0.935,0.908,0.767,0.516,0.493,0.43,0.458,0.441,0.849,0.763,0.793,0.665,0.926,0.865,0.894,0.67,0.442,0.418,0.35,0.305
NCI-H838,0.781,0.689,0.628,0.356,0.231,0.234,0.197,0.172,0.5,0.473,0.397,0.302,0.952,0.924,0.917,0.413,0.449,0.425,0.382,0.326
NCI-H1355,1.03,0.937,1.1,0.961,0.418,0.346,0.388,0.393,0.427,0.344,0.44,0.362,1.03,1.07,1.09,0.773,0.451,0.423,0.436,0.424
HCC-78,0.413,0.354,0.355,0.318,0.56,0.437,0.49,0.433,0.823,0.756,0.797,0.737,0.665,0.537,0.596,0.5,0.236,0.206,0.154,0.218
NCI-H1650,0.98,0.969,0.786,0.591,0.394,0.328,0.319,0.289,0.6,0.493,0.551,0.504,1.24,1.06,0.668,0.792,0.698,0.576,0.517,0.498
NCI-H1944,1.18,1.03,1.09,0.741,0.381,0.33,0.411,0.325,0.467,0.377,0.538,0.374,0.996,0.888,1.06,0.802,0.376,0.329,0.367,0.363
BEN,0.984,1.02,0.787,0.821,0.454,0.436,0.49,0.491,1.12,1.12,0.933,1.13,0.54,0.645,0.818,0.803,0.542,0.587,0.533,0.715
A-427,0.906,0.924,0.771,0.446,0.562,0.482,0.508,0.502,0.757,0.733,0.72,0.625,0.98,1.12,1.07,0.897,0.723,0.805,0.651,0.585
LXF-289,0.86,0.82,0.778,0.47,0.671,0.595,0.638,0.579,0.523,0.67,0.725,0.631,0.963,0.908,1.02,0.9,0.844,0.77,0.879,0.649
COR-L23,0.724,0.703,0.466,0.204,0.359,0.287,0.253,0.191,0.622,0.628,0.509,0.344,1.07,0.97,0.909,0.715,0.909,0.899,0.75,0.538

Cell Line,relative viability (BX 795 + Crizotinib; first compound 0.04 µM),relative viability (BX 795 + Crizotinib; first compound 0.1265 µM),relative viability (BX 795 + Crizotinib; first compound 0.4 µM),relative viability (BX 795 + Crizotinib; first compound 1.265 µM),relative viability (BX 795 + Palbociclib; first compound 0.04 µM),relative viability (BX 795 + Palbociclib; first compound 0.1265 µM),relative viability (BX 795 + Palbociclib; first compound 0.4 µM),relative viability (BX 795 + Palbociclib; first compound 1.265 µM),relative viability (BX 795 + Trametinib; first compound 0.04 µM),relative viability (BX 795 + Trametinib; first compound 0.1265 µM),relative viability (BX 795 + Trametinib; first compound 0.4 µM),relative viability (BX 795 + Trametinib; first compound 1.265 µM),relative viability (BX 795 + Foretinib; first compound 0.04 µM),relative viability (BX 795 + Foretinib; first compound 0.1265 µM),relative viability (BX 795 + Foretinib; first compound 0.4 µM),relative viability (BX 795 + Foretinib; first compound 1.265 µM),relative viability (BX 795 + Pictilisib; first compound 0.04 µM),relative viability (BX 795 + Pictilisib; first compound 0.1265 µM),relative viability (BX 795 + Pictilisib; first compound 0.4 µM),relative viability (BX 795 + Pictilisib; first compound 1.265 µM)
NCI-H647,1.08,1.17,0.955,0.242,0.425,0.365,0.384,0.3,0.447,0.504,0.448,0.344,1.19,1.24,1.26,0.916,,0.363,0.438,0.343
NCI-H2087,0.745,0.963,0.868,0.516,0.219,0.248,0.322,0.209,0.235,0.163,0.242,0.221,1.06,1.13,1.24,0.623,0.999,1.02,1.03,0.756
NCI-H2228,0.635,0.5,0.572,0.288,1.07,0.787,0.974,0.658,0.689,0.713,0.389,0.349,1.05,0.967,1.13,0.625,0.517,0.439,0.377,0.239
NCI-H1915,0.904,0.95,0.85,0.765,0.63,0.501,0.637,0.485,0.315,0.271,0.304,0.265,1.07,1.1,1.08,0.995,0.98,0.831,0.954,0.798
NCI-H1993,0.888,0.891,0.795,0.665,0.67,0.744,0.671,0.642,0.554,0.439,0.504,0.561,0.804,0.961,0.73,0.665,0.83,0.79,0.793,0.806
NCI-H23,0.459,0.503,0.374,0.257,0.457,0.43,0.567,0.464,0.341,0.338,0.368,0.312,0.943,0.872,1,0.472,0.515,0.504,0.41,0.391
ChaGo-K-1,1.11,1.14,1.05,0.961,0.889,0.929,0.928,0.705,0.924,0.907,0.885,0.75,0.993,0.89,0.982,0.767,0.615,0.52,0.735,0.776
EKVX,1.04,0.867,0.732,0.753,0.51,0.483,0.381,0.365,0.358,0.298,0.382,0.351,0.496,0.893,0.516,0.726,0.401,0.455,0.421,0.466
HOP-62,1.04,0.953,1.13,0.941,0.471,0.465,0.502,0.47,0.374,0.369,0.365,0.317,1.04,0.967,1.37,0.923,0.803,0.586,0.682,0.66
NCI-H2126,1.04,0.984,1.09,0.945,0.387,0.329,0.35,0.34,0.611,0.537,0.685,0.534,1.31,1.02,1.3,1.03,0.479,0.462,0.566,0.448
NCI-H1734,0.765,0.727,0.64,0.432,0.404,0.377,0.35,0.354,0.714,0.651,0.69,0.562,0.836,0.982,0.83,0.456,0.463,0.471,0.411,0.368
HARA,1.21,1.06,1,0.601,0.237,0.183,0.201,0.208,0.75,0.625,1.16,0.533,0.914,0.935,0.849,0.31,0.403,0.412,0.496,0.474
201T,1.06,1.03,1.1,1.03,0.333,0.34,0.376,0.405,0.763,0.749,0.76,0.766,1.2,1.13,0.952,1.21,0.689,0.679,0.721,0.68
NCI-H2085,0.911,0.841,0.843,0.732,0.466,0.465,0.515,0.51,0.645,0.512,0.669,0.484,1.05,1.05,0.873,0.809,0.463,0.454,0.433,0.489
LK-2,0.238,0.171,0.21,0.193,0.83,0.862,0.635,0.559,0.757,0.837,0.583,0.629,0.937,1.51,1.31,1.1,0.622,0.556,0.47,0.557
